Data: US10676744B2, “Modulation of adipose tissue macrophage phenotype by use of MicroRNA-30” (University of South Carolina, priority 2017, dated 2020)

Key:
Format in all cases: cell-based, mice
[1] = system: Notch1 intracellular domain (N1ICD); test: In vitro LNA transfection assay in BMDM: Western blot of cleaved/activated Notch1; conditions: LNA-transfected BMDM, compared to Mock and Ctr LNA
Protocol: (§1) FIG. 3A schematically illustrates an in vitro experimental timeline during which differentiated bone marrow-derived microphages (BMDM) were incubated in conditioned medium from 3T3-L1 adipocytes (CM-3T3-L1A) prior to transfection with microRNA inhibitor locked nucleic acids (LNA) and subsequent culture. Cells and supernatants were harvested at 48 h.
FIG. 3C presents Western blot results of cleaved/activated Notch1 (N1ICD) during the in vitro experiments. Fold induction relative to Mock is represented below each lane.
(§2) Bone marrow derived macrophages (BMDM) were differentiated from bone marrow cells (BMC) by flushing the tibia and femur of 6-8 week old female C57Bl/6J mice with PBS. BMCs were filtered through a 70 μm nylon mesh, RBC-lysed, and washed, then cultured in complete DMEM/F12 supplemented with 10% FBS, 1% penicillin/streptomycin, 2 mM L-glutamine, and 1 U/mL M-CSF (BioLegend, 576406) for 7-10 days. 3T3-L1 adipocyte-conditioned media (CM-3T3-L1A) was generated by differentiating 3T3-L1 preadipocytes into adipocytes according to the Zen-Bio 3T3-L1 Adipocyte Care Manual (ZBM0009.03). Preadipocyte medium, differentiation medium, and adipocyte maintenance medium were also used (Zen-Bio, PM-1-L1, DM-2-L1, AM-1-L1). Conditioned medium was collected between days 7 and 14 post-differentiation, 0.22 μm filtered, aliquoted, and stored at −80° C. until use. For transfection assays, mature BMDM were plated in poly-D-lysine-coated 6-well plates at a density of 5×10^5 cells in 2 ml CM-3T3-L1A containing 10% FBS without antibiotics. BMDM were incubated 24 h (37° C., 5% CO2, 95% humidity) before transfection. Transfection complexes were prepared by diluting Lipofectamine3000 and LNA in Opti-MEM to final concentrations of 2% (v/v) and 0.32 μM respectively. Mixtures were incubated 15-20 m at RT to allow complexes to form. Meanwhile, conditioned BMDM were washed 3× in pre-warmed Dulbecco's PBS (DPBS), then media replaced with 2 mL Opti-MEM. 5004 transfection complexes were added drop-wise to each well. […]

[2] = system: miRs-30a-5p, -30c-5p, and -30e-5p; test: In vitro LNA transfection assay in conditioned BMDM: miR-30 expression; conditions: BMDM in CM-3T3-L1A, LNA-transfected; relative to Mock and control LNA (Ctr LNA)
Protocol: ATMs were lysed in Qiazol and total RNA was purified using Qiagen miRNeasy Microkit. RNA concentration and purity were measured using a NanoDrop 2000 spectrophotometer. 400 ng total RNA was reverse transcribed to cDNA using Qiagen miScript II RT kit with HiFlex buffer. To validate miRNA expression by qRT-PCR, miScript SYBR Green PCR kit and miScript miRNA Primer Assays were used (Qiagen).
as §2

DLL4 = test: In vitro LNA transfection assay in BMDM: DLL4 in culture supernatants by ELISA; conditions: LNA-transfected BMDM; compared to Mock and Ctr LNA; harvested at 48 h
Protocol: as §1
FIG. 3B presents the amounts of DLL4 detected in culture supernatants by ELISA during the in vitro experiments.
as §2, with “form.” for “form. Meanwhile, conditioned BMDM were washed 3× in pre-warmed Dulbecco's PBS (DPBS), then media replaced with 2 mL Opti-MEM. 5004 transfection complexes were added drop-wise to each well.”
Culture supernatants were aspirated and centrifuged 5000 RPM, 5 m, 4° C. to rid of debris then aliquoted and stored −80° C. before assaying. […] Assays were performed according to manufacturer protocols and plates were read at 450 nm. Concentrations were calculated using standard curves.

CD11c = test: In vitro LNA transfection assay in BMDM: CD11c surface expression by flow cytometry; conditions: DAPT (5 uM) added to culture media of transfected BMDM
Protocol: as §1
FIG. 3F presents flow cytometry histograms of CD11c expression in the transfected BMDM. For FIG. 3B-FIG. 3F, values are presented as mean±SEM and are from a single experiment representative of 2-3 independent experiments.
FIG. 3G presents the percentage increase in CD11c+ macrophages during the in vitro experiments.
Freshly isolated SVF cells or cultured BMDM were washed in FACS buffer then incubated on ice with FcR-Blocker for 10 m followed by appropriate fluorochrome-conjugated antibodies or isotype controls (BioLegend, anti-CD11b-AlexaFluor488 clone: M1/70, anti-F4/80-PE clone: BM8, anti-DLL4-APC clone: HMD4-1, anti-CD45-PECy7 clone: 30-F11, anti-CD11c-APC clone: N418) for 50 m. Stained cells were washed 3× in FACS buffer then analyzed on a Beckman Coulter FC500 or BD FACSCelesta flow cytometer. Plots were analyzed with Beckman Coulter CXP Software or FlowJo v10.
Bone marrow derived macrophages (BMDM) were differentiated from bone marrow cells (BMC) by flushing the tibia and femur of 6-8 week old female C57Bl/6J mice with PBS. […]

| Compound | activated Notch1 intracellular domain (N1ICD) expression [1] | expression of miRs-30a-5p, -30c-5p, and -30e-5p [2] | DLL4 expression (culture supernatants, ELISA) (DLL4) | induction of CD11c in miR-30 inhibitor-transfected cells (CD11c) |
| --- | --- | --- | --- | --- |
| Anti-30e: miRNA inhibitor locked nucleic acid (MirCURY LNA, Exiqon) targeting miR-30e-5p; SEQ ID NO: 4 TCCAGTCAAGGATGTTTAC (LNA-modified miRCURY inhibitor, LNA positions and linkages not given here) | increased | decreased expression | increased |  |
| Anti-30c: miRNA inhibitor locked nucleic acid (MirCURY LNA, Exiqon) targeting miR-30c-5p; SEQ ID NO: 3 CTGAGAGTGTAGGATGTT (LNA-modified miRCURY inhibitor, LNA positions and linkages not given here) | increased | decreased expression | increased |  |
| C[C@H](NC(=O)Cc1cc(F)cc(F)c1)C(=O)N[C@H](C(=O)OC(C)(C)C)c1ccccc1 [DAPT] |  |  |  | reduced induction |
| Anti-30a: miRNA inhibitor locked nucleic acid (MirCURY LNA, Exiqon) targeting miR-30a-5p; SEQ ID NO: 2 TTCCAGTCGAGGATGTTTAC (LNA-modified miRCURY inhibitor, LNA positions and linkages not given here) | increased | decreased expression | increased |  |
